Where two headings read alike, the source gives them in different places.
Tests used:
[1] = tested on: male, Charles River mice, CF-1; assay: rotorod motor coordination (RMC) test
Experimental: In order to differentiate between specific antiagressive effects and an inhibition of fighting due to debilitation, rotorod motor coordination (RMC) tests were conducted according to an adaptation of the method of Dunham et al., J. Am. Pharm. Assc. […] The amount of time spent on the rod (maximum of 60 seconds) was recorded and compared with the vehicle treated control animals. […] In comparison, the minimum effective dose (mg/kg i.p.) of buspirone in the isolation induced aggression study was 10.0 mg/kg and greater than 60.0 mg/kg in producing ataxia as evaluated by the rotorod motor coordination study.

[2] = tested on: male Charles River, CF-1 mice; assay: isolation-induced aggression test; conditions: for total fighting time (TFT): 60 minutes before testing, 3 minute test, vehicle controls 15.7 seconds
Experimental: The isolation-induced aggression test was conducted with male mice in an adaptation of the method of DaVanzo et al., Psychopharmacology, (Berlin) 9 210 (1966) whereby male Charles River, CF-1 mice, 16-20 g in weight were individually housed for a period of three weeks and then trained to attack an intruder mouse which had been group housed (10/cage). […] The total fighting time (TFT) in seconds was recorded during a 3 minute test period upon introduction of the intruder mouse into the cage of the aggressive mouse.

[3] = tested on: male CD rats (Charles River); conditions: i.p., reported by Martin et al. 1988; cited from earlier work
[4] = tested on: male CD rats (Charles River); assay: discrete trial conditioned avoidance responding (CAR) test; format: in vivo; conditions: Rattus norvegicus, ip, thirty minutes before the test, instant test procedure, read-out: ED50 (reduction in avoidance responding)
Experimental: The conditioned avoidance responding (CAR) test was conducted in male CD rats (Charles River) maintained at approximately 400-450 g body weight. Rats trained previously were placed in Plexiglas® experimental chambers equipped with a response lever, house light and sonalert. The steel grid chamber floor is wired for presentation of an electric shock. Each trial consists of a fifteen second warning tone conditioned stimulus, continuing for an additional fifteen seconds accompanied by electric shock (unconditioned stimulus). The rat can terminate a trial at any point by depressing the response lever. A response during the initial fifteen second warning tone ends the trial before shock delivery and is considered an avoidance response. A response occurring during shock delivery is an escape response. […] The ED50 of the test compound is calculated from the percentage reduction in avoidance responding and represents that dose at which only half the responses are made.

[5] = biological target: T1, post synaptic 5-HT1A receptor (Rattus norvegicus, UniProt P19327); conditions: for in vivo postsynaptic 5-HT1A activity profile in serotonin syndrome tests: rats, i.p.
T1 sequence (P19327 1-422): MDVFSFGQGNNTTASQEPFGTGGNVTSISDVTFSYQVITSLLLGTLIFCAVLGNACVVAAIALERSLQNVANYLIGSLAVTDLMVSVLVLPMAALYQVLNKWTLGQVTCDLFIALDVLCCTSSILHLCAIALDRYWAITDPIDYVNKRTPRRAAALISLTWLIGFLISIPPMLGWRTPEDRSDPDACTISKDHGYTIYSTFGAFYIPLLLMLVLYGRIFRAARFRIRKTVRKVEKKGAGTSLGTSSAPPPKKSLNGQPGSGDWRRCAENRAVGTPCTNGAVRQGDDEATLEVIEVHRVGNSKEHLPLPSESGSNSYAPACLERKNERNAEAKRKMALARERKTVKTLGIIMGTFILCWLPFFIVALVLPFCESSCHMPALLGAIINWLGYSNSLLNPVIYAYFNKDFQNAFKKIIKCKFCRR
Experimental: (§1) Serotonin syndrome tests were conducted according to the method of Smith et al., Pharmacol. Biochem. and Behav., 24 1513 (1986).
(§2) Male Sprague-Dawley CD rats (Charles River) weighing 200-300 g were housed 6/cage with food and water available ad libitum. Animals were allowed to acclimate to the animal colony for at least 1 week prior to testing. Rats were placed individually into plexiglas® observation cages with a layer of bedding covering the bottom. […] During the 15 minute pretreatment, subjects were scored for the presence of the 5-HT syndrome (agonist activity). After the 8-OH-DPAT injection, all subjects were scored for an additional 15 minutes to identify antagonist activity. Scoring the 5-HT syndrome consisted of rating the following behaviors: (1) forepaw treading, (2) head-weaving, (3) tremor, (4) hindlimb abduction, (5) flattened body posture, and (6 ) Straub tail on a 4-point ranked intensity scale with a maximum score of 18. Results were expressed as mean total score (+/-SEM) for induction of syndrome and for antagonism of syndrome.

5-HT1A receptors = conditions: Martin et al., European J. of Pharmacol. 156 223 (1988); cited from earlier work
[6] = biological target: T1, post synaptic 5-HT1A receptor; assay: in vivo; conditions: ip
Experimental: as §1, §2

| SMILES | dosage at which mice became debilitated (rotorod) ([1]; intraperitoneally 60 minutes before rotorod) | debilitating dose relative to dose that antagonized aggressive activity ([1]; rotorod vs isolation-induced aggression, mice i.p.) | total fighting time (TFT) ([2]; 0.5 mg/kg i.p.) | total fighting time (TFT) ([2]; 1.0 mg/kg i.p.) | total fighting time (TFT) ([2]; 3.0 mg/kg i.p.) | ED50 (reduction in avoidance responding) [3] | ED50 [4] | antagonism of serotonin syndrome induced by 8-OH-DPAT ([5]; 33 mg/kg i.p., 15 minutes prior to 5.6 mg/kg i.p. 8-OH-DPAT) | induction of 5-HT syndrome (agonist activity) ([5]; 10 and 30 mg/kg i.p., scored during 15 minute pretreatment) | in vivo postsynaptic 5-HT1A activity profile in serotonin syndrome tests [5] | Ki (5-HT1A receptors) | minimum effective dose in producing ataxia (rotorod motor coordination) ([1]; mouse, in vivo, ip) | minimal effective dose ([2]; Mus musculus, ip, 1 h, read-out: minimum effective dose in the isolation induced aggression study) | ED50 ([6]; read-out: agonist ED50) | ED50 ([6]; read-out: antagonist ED50) |
| --- | --- | --- | --- | --- | --- | --- | --- | --- | --- | --- | --- | --- | --- | --- | --- |
| COc1ccccc1N1CCNCC1 | ≥ 30.0 mg/kg | at least ten times the dose that antagonized aggressive activity | 5.1 s | 0.7 s | 0.1 s | 5.6 mg/kg | 10.6 mg/kg | antagonized the serotonin syndrome | displayed agonist activity | weak partial agonist activity | 9.5 nM |  |  |  |  |
| O=C1CC2(CCCC2)CC(=O)N1CCCCN1CCN(c2ncccn2)CC1 [buspirone, reference compound] |  |  |  |  |  |  |  |  |  | partial agonist profile |  | greater than 60.0 mg/kg | 10 mg/kg | 7 mg/kg | 4 mg/kg |

— patent US4920121A
